# Data as given in ChEMBL document CHEMBL4808230, “Neuroprotective effects of 2-heptyl-3-hydroxy-4-quinolone in HT22 mouse hippocampal neuronal cells” (2021).
# The source made the active and inactive calls. The rule behind the calls is not given here.
# Assays:
# HT-22 [1] = assay: Neuroprotective activity against glutamate-induced cytotoxicity in mouse HT-22 cells assessed as increase in cell viability at 0.6 uM in presence of glutamate by calcein-AM dye/propidium iodide staining based microscopic analysis; assay type: functional
# HT-22 [2] = assay: Neuroprotective activity against glutamate-induced cytotoxicity in mouse HT-22 cells assessed as increase in cell viability at 1.85 to 5.5 uM in presence of glutamate by calcein-AM dye/propidium iodide staining based microscopic analysis; assay type: functional; conditions: dose 1.85-5.5 µM
# HT-22 [3] = assay: Inhibition of glutamate-induced oxidative stress in mouse HT-22 cells assessed as reduction in intracellular ROS accumulation at 0.2 to 1.8 uM in presence of glutamate by FACS analysis; assay type: functional, cell-based; conditions: dose 0.2-1.8 µM
# HT-22 [4] = assay: Inhibition of glutamate-induced oxidative stress in mouse HT-22 cells assessed as reduction in intracellular ROS accumulation at 0.2 to 3.6 uM in presence of glutamate by DCF-DA staining based fluorescence microscopic analysis; assay type: functional, cell-based; conditions: dose 0.2-3.6 µM
# HT-22 [5] = assay: Inhibition of glutamate-induced Ca2+ influx in mouse HT-22 cells assessed as reduction in intracellular Ca2+ concentration in presence of glutamate by Fluo3-AM staining based fluorescence microscopic method; assay type: functional, cell-based; conditions: dose 0.6-1.8 µM
# [6] = molecular target: c-Jun N-terminal kinase (Mus musculus) (UniProt Q91Y86+Q9WTU6+Q61831); assay: Inhibition of glutamate-induced JNK activation in mouse HT-22 cells assessed as reduction in phosphorylated JNK protein level at 1 to 10 uM in presence of glutamate by Western blot analysis; assay type: cell-based; conditions: dose 1-10 µM
# Sequence of c-Jun N-terminal kinase (Mus musculus) (Q61831 whole entry, looked up): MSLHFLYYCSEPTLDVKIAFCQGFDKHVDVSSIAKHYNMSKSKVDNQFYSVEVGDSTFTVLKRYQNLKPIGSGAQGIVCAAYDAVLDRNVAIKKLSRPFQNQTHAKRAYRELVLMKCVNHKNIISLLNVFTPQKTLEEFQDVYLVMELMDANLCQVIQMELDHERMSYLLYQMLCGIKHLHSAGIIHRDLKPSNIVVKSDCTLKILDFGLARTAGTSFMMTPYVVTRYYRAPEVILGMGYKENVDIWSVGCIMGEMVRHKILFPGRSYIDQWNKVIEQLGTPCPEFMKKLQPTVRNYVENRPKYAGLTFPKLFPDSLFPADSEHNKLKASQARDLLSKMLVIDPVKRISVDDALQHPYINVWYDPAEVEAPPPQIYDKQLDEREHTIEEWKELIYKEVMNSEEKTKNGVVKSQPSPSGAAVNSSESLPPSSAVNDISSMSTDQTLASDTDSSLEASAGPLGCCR
# Sequence of c-Jun N-terminal kinase (Mus musculus) (Q91Y86 whole entry, looked up): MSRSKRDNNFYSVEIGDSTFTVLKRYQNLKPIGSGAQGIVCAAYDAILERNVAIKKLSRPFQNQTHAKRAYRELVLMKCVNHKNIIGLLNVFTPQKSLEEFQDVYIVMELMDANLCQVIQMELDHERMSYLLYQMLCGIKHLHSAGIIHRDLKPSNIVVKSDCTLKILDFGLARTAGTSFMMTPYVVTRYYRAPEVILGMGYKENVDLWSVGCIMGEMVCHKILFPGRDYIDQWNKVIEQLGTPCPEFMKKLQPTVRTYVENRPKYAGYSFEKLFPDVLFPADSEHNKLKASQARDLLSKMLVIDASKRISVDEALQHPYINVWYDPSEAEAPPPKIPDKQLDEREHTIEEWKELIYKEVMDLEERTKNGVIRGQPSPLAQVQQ
# Sequence of c-Jun N-terminal kinase (Mus musculus) (Q9WTU6 whole entry, looked up): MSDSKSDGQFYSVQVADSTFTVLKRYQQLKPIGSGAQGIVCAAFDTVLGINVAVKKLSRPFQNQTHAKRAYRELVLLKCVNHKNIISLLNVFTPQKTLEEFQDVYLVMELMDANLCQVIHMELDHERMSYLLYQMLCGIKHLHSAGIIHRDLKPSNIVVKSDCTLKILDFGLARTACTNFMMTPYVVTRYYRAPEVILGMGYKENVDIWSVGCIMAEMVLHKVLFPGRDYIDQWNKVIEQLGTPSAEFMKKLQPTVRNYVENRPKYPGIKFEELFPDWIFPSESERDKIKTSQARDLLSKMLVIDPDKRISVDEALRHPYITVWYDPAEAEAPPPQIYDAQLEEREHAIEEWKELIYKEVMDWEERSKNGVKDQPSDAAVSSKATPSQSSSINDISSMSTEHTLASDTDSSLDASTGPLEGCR
# HT-22 [7] = assay: Inhibition of glutamate-induced ERK activation in mouse HT-22 cells assessed as reduction in phosphorylated ERK protein level at 1 to 10 uM in presence of glutamate by Western blot analysis; assay type: cell-based; conditions: dose 1-10 µM
# [8] = molecular target: MAP kinase p38 (Mus musculus) (UniProt P47811+O08911+Q9WUI1+Q9Z1B7); assay: Inhibition of glutamate-induced p38 MAPK activation in mouse HT-22 cells assessed as reduction in phosphorylated p38 MAPK protein level at 1 to 10 uM in presence of glutamate by Western blot analysis; assay type: cell-based; conditions: dose 1-10 µM
# HT-22 [9] = assay: Inhibition of glutamate-induced apoptosis in mouse HT-22 cells assessed as reduction in Bax protein level at 1 to 10 uM incubated for 10 hrs in presence of glutamate by Western blot analysis; assay type: functional, cell-based; conditions: dose 1-10 µM
# HT-22 [10] = assay: Inhibition of glutamate-induced apoptosis in mouse HT-22 cells assessed as increase in Bcl2 protein level at 1 to 10 uM incubated for 10 hrs in presence of glutamate by Western blot analysis; assay type: functional, cell-based; conditions: dose 1-10 µM
# HT-22 [11] = assay: Inhibition of glutamate-induced AIF nuclear translocation in mouse HT-22 cells assessed as decrease in translocation of AIF from mitochondria to nucleus at 1 to 10 uM in presence of glutamate by Western blot analysis; assay type: functional, cell-based; conditions: dose 1-10 µM
# HT-22 [12] = assay: Inhibition of glutamate-induced apoptosis in mouse HT-22 cells assessed as early apoptotic cells at 0.2 uM pretreated with glutamate for 2 hrs followed by incubation with compound for 8 hrs by Annexin-V FITC and propidium iodide staining based flow cytometric analysis (reference value: 71.33%); assay type: functional; set-up: scale not given: the % may be the effect or the level left
# HT-22 [13] = assay: Inhibition of glutamate-induced apoptosis in mouse HT-22 cells assessed as late apoptotic cells at 0.2 uM pretreated with glutamate for 2 hrs followed by incubation with compound for 8 hrs by Annexin-V FITC and propidium iodide staining based flow cytometric analysis (reference value: 6.49%); assay type: functional; set-up: scale not given: the % may be the effect or the level left
# HT-22 [14] = assay: Inhibition of glutamate-induced apoptosis in mouse HT-22 cells assessed as necrotic cells at 0.2 uM pretreated with glutamate for 2 hrs followed by incubation with compound for 8 hrs by Annexin-V FITC and propidium iodide staining based flow cytometric analysis (reference value: 0.79%); assay type: functional; set-up: scale not given: the % may be the effect or the level left
# HT-22 [15] = assay: Inhibition of glutamate-induced apoptosis in mouse HT-22 cells assessed as early apoptotic cells at 1.85 uM pretreated with glutamate for 2 hrs followed by incubation with compound for 8 hrs by Annexin-V FITC and propidium iodide staining based flow cytometric analysis (reference value: 71.33%); assay type: functional; set-up: scale not given: the % may be the effect or the level left
# HT-22 [16] = assay: Inhibition of glutamate-induced apoptosis in mouse HT-22 cells assessed as late apoptotic cells at 1.85 uM pretreated with glutamate for 2 hrs followed by incubation with compound for 8 hrs by Annexin-V FITC and propidium iodide staining based flow cytometric analysis (reference value: 6.49%); assay type: functional; set-up: scale not given: the % may be the effect or the level left
# HT-22 [17] = assay: Inhibition of glutamate-induced apoptosis in mouse HT-22 cells assessed as necrotic cells at 1.85 uM pretreated with glutamate for 2 hrs followed by incubation with compound for 8 hrs by Annexin-V FITC and propidium iodide staining based flow cytometric analysis (reference value: 0.79%); assay type: functional; set-up: scale not given: the % may be the effect or the level left
# HT-22 [18] = assay: Inhibition of glutamate-induced apoptosis in mouse HT-22 cells assessed as viable cells at 1.85 uM pretreated with glutamate for 2 hrs followed by incubation with compound for 8 hrs by Annexin-V FITC and propidium iodide staining based flow cytometric analysis (reference value: 21.39%); assay type: functional; conditions: read-out: Activity
# HT-22 [19] = assay: Inhibition of glutamate-induced apoptosis in mouse HT-22 cells assessed as viable cells at 0.2 uM pretreated with glutamate for 2 hrs followed by incubation with compound for 8 hrs by Annexin-V FITC and propidium iodide staining based flow cytometric analysis (reference value: 21.39%); assay type: functional; conditions: read-out: Activity
# HT-22 [20] = assay: Neuroprotective activity against glutamate-induced cytotoxicity in mouse HT-22 cells assessed as reduction in cell death and morphological changes at 0.6 to 1.8 uM incubated for 12 hrs in presence of glutamate by phase contrast microscopic analysis; assay type: functional, cell-based; conditions: dose 0.6-1.8 µM
# HT-22 [21] = assay: Neuroprotective activity against glutamate-induced cytotoxicity in mouse HT-22 cells assessed as reduction in cell death pretreated with glutamate followed by incubation with compound for 6 hrs and measured at 16 hrs post-glutamate treatment; assay type: functional, cell-based
# HT-22 [22] = assay: Neuroprotective activity against glutamate-induced cytotoxicity in mouse HT-22 cells assessed as reduction in cell death pretreated with glutamate followed by incubation with compound for 8 hrs and measured at 16 hrs post-glutamate treatment; assay type: functional, cell-based
# RGC-5 = assay: Cytoprotective activity against glutamate-induced cytotoxicity in rat RGC-5 cells assessed as reduction in cell death; assay type: functional, cell-based
# [23] = Antioxidant activity assessed as DPPH radical scavenging activity; assay type: functional
# [24] = Inhibition of glutamate-induced Ca2+ influx in mouse HT-22 cells assessed as reduction in intracellular Ca2+ concentration at 0.6 to 1.8 uM in presence of glutamate by Fluo3-AM staining based fluorescence microscopic method relative to control; assay type: functional; conditions: dose 0.6-1.8 µM
# HT-22 [25] = assay: Inhibition of glutamate-induced AIF nuclear translocation in mouse HT-22 cells assessed as decrease in translocation of AIF from mitochondria to nucleus in presence of glutamate by immunostaining analysis; assay type: functional, cell-based
smiles,measurement,setting,value
CCCCCCCc1[nH]c2ccccc2c(=O)c1O,Activity,HT-22 [1],Active
same,Activity,HT-22 [2],inactive
same,inhibition,HT-22 [3],Active
same,inhibition,HT-22 [4],Active
same,inhibition,HT-22 [5],Dose-Dependent Effect
same,inhibition,[6],Active
same,inhibition,HT-22 [7],Active
same,inhibition,[8],Active
same,inhibition,HT-22 [9],Active
same,inhibition,HT-22 [10],Active
same,inhibition,HT-22 [11],Active
same,Activity,HT-22 [12],55.26%
same,Activity,HT-22 [13],5.51%
same,Activity,HT-22 [14],1.74%
same,Activity,HT-22 [15],0.44%
same,Activity,HT-22 [16],1.06%
same,Activity,HT-22 [17],0.44%
same,viability at 1.85 µM,HT-22 [18],98.1%
same,viability at 0.2 µM,HT-22 [19],37.5%
same,Activity,HT-22 [20],Active
same,Activity,HT-22 [21],Active
same,Activity,HT-22 [22],inactive
same,Activity,RGC-5,Active
same,Activity,[23],Dose-Dependent Effect
same,fold change (FC),[24],0.98
same,inhibition,HT-22 [25],Active
